As usually defined, the solubility is how much of the substance goes into solution per volume. The low end stands for a poorly soluble substance, the high end for a readily soluble substance.

Data set [1] in a line: Determination of the solubility (24 h shaking at room temperature, ultracentrifugation, HPLC). The class given is physicochemical. Conditions: thermodynamic from solid. Here is the method:
The test substance is suspended in water or dilute hydrochloric acid (pH 4) [Examples 1-21] or in 5% strength aqueous dextrose solution [Examples 22-40]. This suspension is shaken at room temperature for 24 h. After ultracentrifugation at 224 000 g for 30 min, the supernatant is diluted with DMSO and analyzed by HPLC. A two-point calibration plot of the test compound in DMSO is used for quantification.
Agilent 1100 with DAD (G1315A), quat. pump (G1311A), autosampler CTC HTS PAL, degasser (G1322A) and column thermostat (G1316A); column: Phenomenex Gemini C18, 5 μm, 50 mm×2 mm; temperature: 40° C.; eluent A: water/phosphoric acid pH 2, eluent B: acetonitrile; flow rate: 0.7 ml/min; gradient: 0-0.5 min 85% A, 15% B; ramp 0.5-3 min 10% A, 90% B; 3-3.5 min 10% A, 90% B; ramp 3.5-4 min 85% A, 15% B; 4-5 min 85% A, 15% B.
Agilent 1100 with DAD (G1315A), quat. pump (G1311A), autosampler CTC HTS PAL, degasser (G1322A) and column thermostat (G1316A); column: VDSoptilab Kromasil 100 C18, 3.5 μm, 60 mm×2.1 mm; temperature: 30° C.; eluent A: water+5 ml of perchloric acid/liter, eluent B: acetonitrile; flow rate: 0.75 ml/min; gradient: 0-0.5 min 98% A, 2% B; ramp 0.5-4.5 min 10% A, 90% B; 4.5-6 min 10% A, 90% B; ramp 6.5-6.7 min 98% A, 2% B; 6.7-7.5 min 98% A, 2% B.

Data set [2] is described as follows: Stability in buffer at various pH values. The class given is physicochemical. Here is the method:
0.3 mg of the test substance is weighed into a 2 ml HPLC vial and 0.5 ml of acetonitrile or acetonitrile/DMSO (9:1) is added. The substance is dissolved by putting the sample vessel in an ultrasonic bath for about 10 seconds. Then 0.5 ml of the respective (buffer) solution is added, and the sample is again treated in the ultrasonic bath.
• pH 4: 1 liter of Millipore water is adjusted to pH 4.0 with 1 N hydrochloric acid; • pH 5: 0.096 mol of citric acid and 0.2 mol of sodium hydroxide ad 1 liter of water; • pH 7.4: 90.0 g of sodium chloride, 13.61 g of potassium dihydrogen phosphate and 83.35 g of 1 N sodium hydroxide solution are made up to 1 liter with water; this solution is then further diluted 1:10 with Millipore water. • pH 8: 0.013 mol of borax and 0.021 mol of hydrochloric acid ad 1 liter of water.
5 μl portions of the sample solution are analyzed by HPLC for their content of unchanged test substance, and of parent substance (A) produced, every hour over a period of 24 hours at 37° C. The percentage areas of the appropriate peaks are used for quantification.
HPLC method for Examples 1-21:
Agilent 1100 with DAD (G1314A), binary pump (G1312A), autosampler (G1329A), column oven (G1316A), thermostat (G1330A); column: Kromasil 100 C18, 60 mm×2.1 mm, 3.5 μm; column temperature: 30° C.; eluent A: water+5 ml of perchloric acid/liter, eluent B: acetonitrile; gradient: 0-1.0 min 98% A, 2% B; 1.0-9.0 min 2% A, 98% B; 9.0-13.0 min 2% A, 98% B; 13.0-13.5 min 98% A, 2% B; 13.5-15.0 min 98% A, 2% B; flow rate: 0.75 ml/min; UV detection: 210 nm.
HPLC method for Examples 22-40:
The ratios of the peak areas (F) at the respective time points in relation to the peak areas at the starting time are shown in Table 3 for representative exemplary embodiments: […]

The mark [3] stands for this setting: aqueous buffer, dilute hydrochloric acid (pH 4).
Where [4] appears, read: saline or isotonic, 5% strength aqueous dextrose solution.

Each structure is given as a SMILES string. Converted amounts (≈) assume the structure as drawn. Structures can show the parent of a compound that is named as a salt. Bounds are passed on as bounds.

For `N#Cc1c(N)nc(SCc2csc(-c3ccc(Cl)cc3)n2)c(C#N)c1-c1ccc(OCCOC(=O)CN)cc1` [Example 6, 2-{4-[2-Amino-6-({[2-(4-chlorophenyl)-1,3-thiazol-4-yl]methyl}thio)-3,5-dicyanopyridin-4-yl]-phenoxy}ethyl glycinate dihydrochloride], in data set [1] (setting [3]), the solubility at 24 h came out at 90 µg/mL.

For the compound `N#Cc1c(N)nc(SCc2csc(-c3ccc(Cl)cc3)n2)c(C#N)c1-c1ccc(OCCOC(=O)[C@@H]2CCCN2)cc1` [Example 9, 2-{4-[2-Amino-6-({[2-(4-chlorophenyl)-1,3-thiazol-4-yl]methyl}thio)-3,5-dicyanopyridin-4-yl]-phenoxy}ethyl L-prolinate hydrochloride], the solubility at 24 h in data set [1] (setting [3]) worked out at 50 µg/mL.

`Cc1ccc(S(=O)(=O)[O-])cc1.N#Cc1c(N)nc(SCc2csc(-c3ccc(Cl)cc3)n2)c(C#N)c1-c1ccc(OCCOC(=O)[C@@H]2CCC[NH2+]2)cc1` [Example 10, 2-{4-[2-Amino-6-({[2-(4-chlorophenyl)-1,3-thiazol-4-yl]methyl}thio)-3,5-dicyanopyridin-4-yl]-phenoxy}ethyl L-prolinate p-toluenesulfonic acid salt] gave a solubility at 24 h in data set [1] (setting [3]) of 8 µg/mL.

`N#Cc1c(N)nc(SCc2csc(-c3ccc(Cl)cc3)n2)c(C#N)c1-c1ccc(OCCOC(=O)[C@@H](N)CO)cc1` [Example 11, 2-{4-[2-Amino-6-({[2-(4-chlorophenyl)-1,3-thiazol-4-yl]methyl}thio)-3,5-dicyanopyridin-4-yl]-phenoxy}ethyl L-serinate hydrochloride] showed a solubility at 24 h in data set [1] (setting [3]) of 70 µg/mL.

With `N#Cc1c(N)nc(SCc2csc(-c3ccc(Cl)cc3)n2)c(C#N)c1-c1ccc(OCCOC(=O)[C@@H](N)CCCCN)cc1` [Example 14, 2-{4-[2-Amino-6-({[2-(4-chlorophenyl)-1,3-thiazol-4-yl]methyl}thio)-3,5-dicyanopyridin-4-yl]-phenoxy}ethyl L-lysinate dihydrochloride], the “% test substance after 4 h [F(t = 4 h) × 100/F(t = 0 h)]” value (“% test substance after 4 h” for short) in data set [2] (pH 4, 37° C.) was found to be 100%; in data set [2] (pH 8, 37° C.), 96%. In addition, the “% test substance after 24 h [F(t = 24 h) × 100/F(t = 0 h)]” value (“% test substance after 24 h” for short) in data set [2] (pH 4, 37° C.) came out at 100%; in data set [2] (pH 8, 37° C.) it was 76%.

With `N#Cc1c(N)nc(SCc2csc(-c3ccc(Cl)cc3)n2)c(C#N)c1-c1ccc(OCCOC(=O)[C@@H](N)Cc2ccccc2)cc1` [Example 16, 2-{4-[2-Amino-6-({[2-(4-chlorophenyl)-1,3-thiazol-4-yl]methyl}thio)-3,5-dicyanopyridin-4-yl]-phenoxy}ethyl L-phenylalaninate hydrochloride], the “% test substance after 4 h” value in data set [2] (pH 4, 37° C.) is 100%; in data set [2] (pH 8, 37° C.), 100%. Further, the “% test substance after 24 h” value in data set [2] (pH 4, 37° C.) is recorded as 100%; in data set [2] (pH 8, 37° C.) it was 100%.

`CS(=O)(=O)O.N#Cc1c(N)nc(SCc2csc(-c3ccc(Cl)cc3)n2)c(C#N)c1-c1ccc(OCCOC(=O)[C@@H](N)Cc2ccccc2)cc1` [Example 18, 2-{4-[2-Amino-6-({[2-(4-chlorophenyl)-1,3-thiazol-4-yl]methyl}thio)-3,5-dicyanopyridin-4-yl]-phenoxy}ethyl L-phenylalaninate methanesulfonic acid salt] gave a solubility at 24 h in data set [1] (setting [3]) of 60 µg/mL.

With `CC(C)[C@H](N)C(=O)OCCOc1ccc(-c2c(C#N)c(N)nc(SCc3csc(-c4ccc(Cl)cc4)n3)c2C#N)cc1` [Example 23, 2-{4-[2-Amino-6-({[2-(4-chlorophenyl)-1,3-thiazol-4-yl]methyl}thio)-3,5-dicyanopyridin-4-yl]-phenoxy}ethyl L-valinate dihydrochloride], the “% test substance after 4 h” value was determined as 100% in data set [2] (pH 4, 37° C.) and 100% in data set [2] (pH 7.4, 37° C.). Further, the “% test substance after 24 h” value in data set [2] (pH 4, 37° C.) is given as 99%; in data set [2] (pH 7.4, 37° C.), 96%.

`N#Cc1c(N)nc(SCc2csc(-c3ccc(Cl)cc3)n2)c(C#N)c1-c1ccc(OCCOC(=O)[C@@H](N)CCN)cc1` [Example 24, 2-{4-[2-Amino-6-({[2-(4-chlorophenyl)-1,3-thiazol-4-yl]methyl}thio)-3,5-dicyanopyridin-4-yl]-phenoxy}ethyl (2S)-2,4-diaminobutanoate dihydrochloride] returned a solubility at 24 h in data set [1] (setting [4]) of over 500 µg/mL. Moreover, in data set [2] (pH 4, 37° C.), the “% test substance after 4 h” value is listed as 100% and the “% test substance after 24 h” value was 99%. In data set [2] (pH 5, 37° C.), the “% test substance after 4 h” value was 96% and the “% test substance after 24 h” value turned out to be 74%.

Consider `N#Cc1c(N)nc(SCc2csc(-c3ccc(Cl)cc3)n2)c(C#N)c1-c1ccc(OCCOC(=O)CCC(=O)O)cc1` [Example 28, 2-Hydroxy-N,N,N-trimethylethanaminium 4-(2-{4-[2-amino-6-({[2-(4-chlorophenyl)-1,3-thiazol-4-yl]methyl}thio)-3,5-dicyanopyridin-4-yl]phenoxy}ethoxy) 4-oxobutanoate], for which, in data set [2] (pH 4, 37° C.), the “% test substance after 4 h” value was determined as 100% and the “% test substance after 24 h” value amounted to 100%. In data set [2] (pH 7.4, 37° C.), the “% test substance after 4 h” value stood at 100% and the “% test substance after 24 h” value was 100%.

In data set [1] (setting [4]), `N#Cc1c(N)nc(SCc2csc(-c3ccc(Cl)cc3)n2)c(C#N)c1-c1ccc(OCCOC(=O)/C=C\C(=O)O)cc1` [Example 31, 2-Hydroxy-N,N,N-trimethylethanaminium (2Z)-4-(2-{4-[2-amino-6-({[2-(4-chlorophenyl)-1,3-thiazol-4-yl]methyl}thio)-3,5-dicyanopyridin-4-yl]phenoxy}ethoxy)-4-oxobut-2-enoate] registered a solubility at 24 h of 4 µg/mL (≈ 6.47 µM).

Regarding `N#Cc1c(N)nc(SCc2csc(-c3ccc(Cl)cc3)n2)c(C#N)c1-c1ccc(OCCOC(=O)[C@@H](N)Cc2c[nH]cn2)cc1` [Example 33, 2-{4-[2-Amino-6-({[2-(4-chlorophenyl)-1,3-thiazol-4-yl]methyl}thio)-3,5-dicyanopyridin-4-yl]-phenoxy}ethyl L-histidinate dihydrochloride], the solubility at 24 h in data set [1] (setting [4]) was found to be 195 µg/mL.

Take `CN(C)CC(=O)Nc1nc(SCc2csc(-c3ccc(Cl)cc3)n2)c(C#N)c(-c2ccc(OCCOC(=O)CN(C)C)cc2)c1C#N` [Example 34, 2-(4-{2-({[2-(4-Chlorophenyl)-1,3-thiazol-4-yl]methyl}thio)-3,5-dicyano-6-[(N,N-dimethylglycyl)-amino]pyridin-4-yl}phenoxy)ethyl N,N-dimethylglycinate]: in data set [2] (pH 4, 37° C.), the “% test substance after 4 h” value is given as 100% and the “% test substance after 24 h” value was 97%. In data set [2] (pH 7.4, 37° C.), the “% test substance after 4 h” value is on record as 100% and the “% test substance after 24 h” value turned out to be 97%.

With `CN(C)CC(=O)Nc1nc(SCc2csc(-c3ccc(Cl)cc3)n2)c(C#N)c(-c2ccc(OCCOC(=O)CN(C)C)cc2)c1C#N` [Example 35, 2-(4-{2-({[2-(4-Chlorophenyl)-1,3-thiazol-4-yl]methyl}thio)-3,5-dicyano-6-[(N,N-dimethylglycyl)-amino]pyridin-4-yl}phenoxy)ethyl N,N-dimethylglycinate dihydrochloride], the “% test substance after 24 h” value was determined as 100% in data set [2] (pH 4, 37° C., dihydrochloride) and 98% in data set [2] (pH 7.4, 37° C., dihydrochloride).
